Measurements from US20220354833A1, “ALVELESTAT FOR USE IN THE TREATMENT OF GRAFT REJECTION, BRONCHIOLITIS OBLITERANS SYNDROME AND GRAFT VERSUS HOST DISEASE” (MEREO BIOPHARMA 4 LIMITED, priority 2019, published 2022).
“And” between values parts separate entries of the source, which are not always exact repeats. Equal values may be shown once. “Also recorded” adds a separate entry of the source. Read-outs that look alike come from different tables or passages of the source.

Experiments:
[1] = target: T1, murine NE (Mus musculus, UniProt Q3UP87); conditions: cited from earlier work
T1 sequence (Q3UP87 27-265): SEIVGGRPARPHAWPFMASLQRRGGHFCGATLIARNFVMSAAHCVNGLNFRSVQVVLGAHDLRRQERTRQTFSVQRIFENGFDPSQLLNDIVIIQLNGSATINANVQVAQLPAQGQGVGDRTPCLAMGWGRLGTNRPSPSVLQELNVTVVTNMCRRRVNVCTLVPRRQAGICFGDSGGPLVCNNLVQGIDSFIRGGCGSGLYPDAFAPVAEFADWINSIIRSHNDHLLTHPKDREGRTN

[2] = test system: patients with BOS and chronic GVHD after HCT
[3] = target: T2, NE (Homo sapiens, UniProt P08246); conditions: cell-associated assay; cited from earlier work
[4] = target: T3, human NE (Homo sapiens, UniProt P08246); conditions: read-out: binding affinity KD; cited from earlier work
T3 sequence (P08246 30-267): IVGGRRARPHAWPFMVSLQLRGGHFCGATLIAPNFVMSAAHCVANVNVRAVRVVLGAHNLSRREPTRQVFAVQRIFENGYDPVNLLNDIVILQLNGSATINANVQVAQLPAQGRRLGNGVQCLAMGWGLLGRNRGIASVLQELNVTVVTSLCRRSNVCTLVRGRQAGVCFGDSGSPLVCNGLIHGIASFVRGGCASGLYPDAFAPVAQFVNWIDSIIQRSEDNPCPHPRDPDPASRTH

[5] = test system: murine model of GVHD; assay type: in vivo
[6] = target: T2, NE; conditions: whole-blood assay; cited from earlier work
[7] = target: T3, human NE; conditions: cited from earlier work

SMILES: Cc1c(-c2ccnn2C)cc(C(=O)NCc2ccc(S(C)(=O)=O)cn2)c(=O)n1-c1cccc(C(F)(F)F)c1 [alvelestat, N-{[5-(methanesulfonyl)pyridin-2-yl]methyl}-6-methyl-5-(1-methyl-1H-pyrazol-5-yl)-2-oxo-1-[3-(trifluoromethyl)phenyl]-1,2-dihydropyridine-3-carboxamide]
- crossover potency for NE from other species ([1]; NE from other species, including mice): good crossover potency
- pIC50 ([1]; murine NE): 6.5
- LSS score for lung/breathing at C5 ([2]; Lee cGVHD Symptom Scale, C5 = continuation dosing period up to 6 months, individual patients #1-7): 7 and 3 (2×) and 11 and 2 and 5 and 4
- LSS score for lung/breathing at the end of treatment ([2]; Lee cGVHD Symptom Scale, individual patients #1-7): 8 and 2 and 11 and 3 and 7 and 5 and 1
- patients with progressive disease ([2]; NIH chronic GVHD consensus criteria, decline in FEV1 after pneumonia, of 7 patients): 1 patient
- grade 2 adverse event possibly related: ALT or AST elevation ([2]; human, in vivo): 3 patients
- grade 2 adverse event possibly related: increased creatinine ([2]; human, in vivo): 3 patients
- grade 2 adverse event possibly related: upper respiratory infection ([2]; human, in vivo): 3 patients
- grade 3 adverse event possibly related: gastroenteritis and vomiting requiring hospitalization ([2]; human, in vivo): 1 patient
- grade 3 adverse event possibly related: pneumonia ([2]; human, in vivo): 1 patient
- patients requiring dose interruptions ([2]; human, in vivo): Four
- patients requiring dose reduction ([2]; human, in vivo): 1
- patients who discontinued treatment prior to end of study ([2]; human, in vivo): Four
- maximum dose to which all 7 patients tolerated dose escalation ([2]; human, in vivo, po, 8 weeks): 240 mg twice daily
- End of treatment FEV1 % predicted ([2]; individual patients (patient #1-7)): 47% and 55% and 40% and 46% and 38% and 41% and 73%
- patients with improvement in Lee chronic GVHD symptom scale lung score ([2]; of 7 patients, 2 during the 6 month treatment period, 2 at end of treatment): 4 patients
- maximum tolerated dose (MTD) ([2]; oral, intra-patient escalation 60 to 240 mg twice daily, 7 patients): not reached
- improvement in FEV1 ([2]; seen in 2 of 7 patients): 9%
- IC50 [3]: 48 nM
- pIC50 [3]: 7.32
- Kd [4]: 9.5 nM
- histological scoring of GI GVHD ([5]; 20 mg/kg diet vs T2e6, sacrificed Day 4, blinded pathologist, n=5/group, p=0.08, FIG. 4): trend toward increased pathology in the T2e6 group; also recorded: markedly less GVHD
- survival ([5]; T-cell dose experiment, 20 mg/kg in pre-mixed diet pellets, vs 2x10^6 T cells alone, p<0.001, n=5/group, FIG. 2A, 20 mg/kg): significantly improved survival; also recorded: better survival
- toxicity in skin or liver (histology) ([5]; mice receiving T2e6+20 mg/kg diet, Day 4): no toxicity was observed
- survival ([5]; powder mixed with wet food, days -1 to 45, TCDBM+T2e6+20 mg/kg wet food vs TCDBM+T2e6, log-rank p=0.01, FIG. 1B): significant improvements in survival
- survival ([5]; pre-mixed diet pellets, days -1 to 45, TCDBM+T2e6+20 mg/kg diet vs TCDBM+T2e6, log-rank p=0.001, FIG. 1A): significant improvements in survival
- dose-response in improvement in survival, body weight or GVHD score ([5]; three doses tested: 20, 50, 200 mg/kg per day, FIG. 1C-1F): does not appear to be a dose-response
- IC50 [6]: 44 nM
- pIC50 [6]: 7.36
- Ki [7]: 9.4 nM
- pIC50 [7]: 7.9
- reversibility of inhibition [7]: rapidly reversible
